Experimental data from US10882838B2, “Cannabinergic compounds and uses thereof” (Northeastern University, priority 2012, dated 2021).
Like-named read-outs stand apart in the source and are kept apart here.

Experiments:
[1] = biological target: hCB2 receptor (Homo sapiens (Human), UniProt P34972); experiment: hCB2 competition-equilibrium binding with [3H]CP-55,940, membranes of HEK293 cells expressing hCB2
Procedure: (§1) HEK293 cells expressing hCB1 or hCB2 or mCB2 receptor are used for membrane preparations according to Abadji et al. The resulting pellet is resuspended in 10 mM Tris-chloride, pH 7.4, with 5 mM MgCl2 and 2 mM EDTA (TME), rapidly frozen in liquid nitrogen and stored at −80° C. for no longer than two months. Protein content is assayed by using the Bio-Rad protein assay according to the manufacturer's protocol.
(§2) All the cannabinoids discussed in this invention are tested for their ability to bind to CB1 and CB2 receptors using membranes from rat brain or HEK293 cells expressing either mCB2 or hCB2, respectively via competition-equilibrium binding using [^3H]CP-55,940. Results are analyzed using nonlinear regression to determine ligand IC50 (Prism by GraphPad Software, Inc.), and Ki values are calculated from the IC50. IC50 and Ki values are determined from at least three independent experiments.

[2] = Stability in plasma (half-life); format: in vitro ADME, rat or monkey; settings: method: 200 μM in plasma, 37°; species of plasma not given
Procedure: The designed compounds carry a side chain that is susceptible to plasma esterase activity, inviting their rapid deactivation. Thus, it is important to characterize the rate of compound metabolism in isolated rat or monkey plasma. As a preliminary predictor of oral stability, this assay will also be done in buffers at pH 2 (to emulate the stomach) and pH 7.4 (physiological pH). Compounds (10 mM in DMSO) are diluted in plasma, acetonitrile or buffer to a concentration of 200 μM and incubated in a 37° shaking water bath for 2 hours. Samples are taken periodically, diluted 1:4 with acetonitrile and centrifuged to precipitate protein. The resulting supernatant is analyzed by HPLC to predict expected in vivo plasma half-lives.

[3] = biological target: CB1 receptor (Rattus norvegicus (Rat), UniProt P20272); experiment: rCB1 competition-equilibrium binding with [3H]CP-55,940, rat brain membranes
Procedure: Frozen rat brains (CB1 source) are obtained from Pel-Freeze Biologicals (Rogers, Ak.) and stored at −80° C. until use. Membranes are prepared according to the method described by Dodd et al. and used in our laboratory as reported.
as §2

[4] = biological target: mCB2 receptor (Mus musculus (Mouse), UniProt P47936); experiment: mCB2 competition-equilibrium binding with [3H]CP-55,940, membranes of HEK293 cells expressing mCB2
Procedure: as §1, §2

[5] = rat brain membranes, [3H]CP-55,940, read-out: rCB1 Ki
[6] = HEK293 cells expressing hCB2, [3H]CP-55,940, read-out: hCB2 Ki
[7] = HEK293 cells expressing mCB2, [3H]CP-55,940, read-out: mCB2 Ki

Structure (SMILES) | Ki [1] [nM] | half-life at 200 μM [2] [min] | Ki [3, 5] [nM] | Ki [1, 6] [nM] | Ki [4, 7] [nM] | t 1/2 [2] [min] | Ki [4] [nM] | Ki [3] [nM]
CC1=CCC2[C@@H](C1)c1c(O)cc(C(C)(C)C(=O)OCCCCC#N)cc1OC2(C)C (stereo in doubt) [Compound 1.3, 4-cyanobutyl-2-((6aS, 10aR)-6a, 7, 10, 10a-tetrahydro-1-hydroxy-6,6,9-trimethyl-6H-benzo[c]chromen-3-yl)-2-methylpropanoate] | 0.8 | 40 | 0.7 |  |  |  |  | 
CC1=CC[C@H]2[C@@H](C1)c1c(O)cc(C(C)(C)C(=O)OCCCCBr)cc1OC2(C)C [Compound 1.2, 4-bromobutyl-2-((6aS,10aR)-6a,7,10,10a-tetrahydro-1-hydroxy-6,6,9-trimethyl-6H-benzochromen-3-yl)-2-methylpropanoate] |  |  | 1.2 | 0.8 | 0.6 | 15 |  | 
CC1=CC[C@@H]2[C@@H](C1)c1c(O)cc(C(C)(C)C(=O)OCCCCn3ccnc3)cc1OC2(C)C [Compound 1.6, 4-(1H-imidazol-1-yl)butyl 2-((6aR,10aR)-6a,7,10,10a-tetrahydro-1-hydroxy-6,6,9-trimethyl-6H-benzo[c]chromen-3-yl)-2-methylpropanoate] |  | 120 | 29.1 | 8.7 | 11.6 |  |  | 
CC1=CC[C@@H]2[C@@H](C1)c1c(O)cc(C(C)(C)C(=O)OCCCn3ccnc3)cc1OC2(C)C [Compound 1.10, 3-(1H-imidazol-1-yl)propyl-2-((6aR,10aR)-6a,7,10,10a-tetrahydro-1-hydroxy-6,6,9-trimethyl-6H-benzo[c]chromen-3-yl)-2-methylpropanoate] |  | 240 | 3.4 | 1.2 | 2 |  |  | 
CCCCOC(=O)C(C)c1cc(O)c2c(c1)OC(C)(C)[C@@H]1CC=C(C)C[C@@H]21 (stereo partly drawn) [Compound 1.12, Butyl 2-((6aR,10aR)-1-hydroxy-6,6,9-trimethyl-6a,7,10,10a-tetrahydro-6H-benzo[c]chromen-3-yl)propanoate] |  | 3 | 0.7 | 1 | 1.2 |  |  | 
CCCCOC(=O)[C@H](C)c1cc(O)c2c(c1)OC(C)(C)[C@@H]1CC=C(C)C[C@@H]21 [Compound 1.14, (R)-butyl 2-((6aR,10aR)-1-hydroxy-6,6,9-trimethyl-6a,7,10,10a-tetrahydro-6H-benzo[c]chromen-3-yl)propanoate] |  | 7 | 0.9 | 1.4 | 1.4 |  |  | 
CCCCOC(=O)[C@@H](C)c1cc(O)c2c(c1)OC(C)(C)[C@@H]1CC=C(C)C[C@@H]21 [Compound 1.16, (S)-butyl 2-((6aR,10aR)-1-hydroxy-6,6,9-trimethyl-6a,7,10,10a-tetrahydro-6H-benzo[c]chromen-3-yl)propanoate] |  | 6 | 2.4 | 1.5 | 1.3 |  |  | 
CC1=CC[C@@H]2[C@@H](C1)c1c(O)cc(C3(C(=O)OCCCCBr)CCC3)cc1OC2(C)C [Compound 1.18, 4-bromobutyl 1-((6aR,10aR)-1-hydroxy-6,6,9-trimethyl-6a,7,10,10a-tetrahydro-6H-benzo[c]chromen-3-yl)cyclobutanecarboxylate] |  | 50 | 0.3 | 0.7 | 3.7 |  |  | 
CC1=CC[C@@H]2[C@@H](C1)c1c(O)cc(C3(C(=O)OCCCCC#N)CCC3)cc1OC2(C)C [Compound 1.19, 4-cyanobutyl 1-((6aR,10aR)-1-hydroxy-6,6,9-trimethyl-6a,7,10,10a-tetrahydro-6H-benzo[c]chromen-3-yl)cyclo butanecarboxylate] |  | 107 | 0.9 | 1.8 | 1.5 |  |  | 
CCCCOC(=O)C1(c2cc(O)c3c(c2)OC(C)(C)[C@@H]2CC=C(C)C[C@@H]32)CCC1 [Compound 1.20, butyl 1-((6aR,10aR)-1-hydroxy-6,6,9-trimethyl-6a,7,10,10a-tetrahydro-6H-benzo[c]chromen-3-yl)cyclobutane carboxylate] |  | 40 | 0.7 | 0.4 | 0.7 |  |  | 
CC1=CC[C@@H]2[C@@H](C1)c1c(O)cc(C(C)(C)C(=O)OCCCCN3CCOCC3)cc1OC2(C)C [Compound 1.24, 4-morpholinobutyl 2-((6aR,10aR)-1-hydroxy-6,6,9-trimethyl-6a,7,10,10a-tetrahydro-6H-benzo[c]chromen-3-yl)-2-methylpropanoate] |  | 68 | 33.8 | 39.9 | 71.8 |  |  | 
CC1=CC[C@@H]2[C@@H](C1)c1c(O)cc(C(C)(C)C(=O)OCCCN3CCOCC3)cc1OC2(C)C [Compound 1.25, 3-morpholinopropyl 2-((6aR,10aR)-1-hydroxy-6,6,9-trimethyl-6a,7,10,10a-tetrahydro-6H-benzo[c]chromen-3-yl)-2-methylpropanoate] | 8.7 | 200 |  |  |  |  | 10.4 | 15.2
CC1=CC[C@@H]2[C@@H](C1)c1c(O)cc(CC(=O)OCCCCBr)cc1OC2(C)C [Compound 1.27, 4-bromobutyl-2-((6aR,10aR)-6a,7,10,10a-tetrahydro-1-hydroxy-6,6,9-trimethyl-6H-benzo[c]chromen-3-yl)acetate] |  | 3 | 2.2 | 7.1 | 11.6 |  |  | 
CC1=CC[C@@H]2[C@@H](C1)c1c(O)cc(CC(=O)OCCCCC#N)cc1OC2(C)C [Compound 1.28, 4-cyanobutyl-2-((6aR,10aR)-6a,7,10,10a-tetrahydro-1-hydroxy-6,6,9-trimethyl-6H-benzo[c]chromen-3-yl)acetate] |  | 4.8 | 14.3 | 1.2 | 2.1 |  |  | 
CCCCOC(=O)Cc1cc(O)c2c(c1)OC(C)(C)[C@@H]1CC=C(C)C[C@@H]21 [Compound 1.29, Butyl-2-((6aR,10aR)-6a,7,10,10a-tetrahydro-1-hydroxy-6,6,9-trimethyl-6H-benzo[c]chromen-3-yl)acetate] |  | 5 | 40.3 | 8.2 | 27 |  |  | 
COC(=O)C(C)(C)c1cc(O)c2c(c1)OC(C)(C)[C@@H]1CC=C(C)C[C@@H]21 [Compound 1.34, Methyl-2-((6aR,10aR)-6a,7,10,10a-tetrahydro-1-hydroxy-6,6,9-trimethyl-6H-benzo[c]chromen-3-yl)-2-methylpropanoate] |  | 60 | 83.1 | 36.8 | 34.5 |  |  | 
CCCCOC(=O)C(C)(C)c1cc(O)c2c(c1)OC(C)(C)[C@@H]1CC=C(CO)C[C@@H]21 [Compound 2.2, Butyl-2-((6aR,10aR)-6a,7,10,10a-tetrahydro-1-hydroxy-9-(hydroxymethyl)-6,6-dimethyl-6H-benzo[c]chromen-3-yl)-2-methylpropanoate] |  | 5 | 0.6 | 0.8 | 1.5 |  |  | 
CC(C)(C(=O)OCCCCn1ccnc1)c1cc(O)c2c(c1)OC(C)(C)[C@@H]1CC=C(CO)C[C@@H]21 [Compound 2.3, 4-(1H-imidazol-1-yl)-butyl-2-((6aR,10aR)-6a,7,10,10a-tetrahydro-1-hydroxy-9-(hydroxymethyl)-6,6-dimethyl-6H-benzo[c]chromen-3-yl)-2-methylpropanoate] |  | 120 | 25.3 | 8.7 | 11.6 |  |  | 
CCCCOC(=O)C(C)(C)c1cc(O)c2c(c1)OC(C)(C)[C@@H]1CC[C@@H](O)C[C@@H]21 [Compound 3.6, Butyl-2-((6aR,9R,10aR)-6a,7,8,9,10,10a-hexahydro-1,9-dihydroxy-6,6-dimethyl-6H-benzo[c]chromen-3-yl)-2-methylpropanoate] |  | 3 | 0.1 | 0.2 | 0.2 |  |  | 
CCCCOC(=O)C(C)(C)c1cc(O)c2c(c1)OC(C)(C)[C@@H]1CC[C@H](O)C[C@@H]21 [Compound 3.8, Butyl-2-((6aR,9S,10aR)-6a,7,8,9,10,10a-hexahydro-1,9-dihydroxy-6,6-dimethyl-6H-benzo[c]chromen-3-yl)-2-methylpropanoate] |  | 8 | 3.1 | 4.5 | 6.6 |  |  | 
CCCCCCC(C)(C)c1cc(O)c2c(c1)OC(C)(C)[C@@H]1CCC(=O)OC[C@@H]21 [Compound 3.10, (5aR,11bR)-11-hydroxy-6,6-dimethyl-9-(2-methyloctan-2-yl)-4,5,5a,6-tetrahydro-1H-oxepino[4,3-c]chromen-3(11bH)-one] |  | 15 |  |  |  |  |  | 
